According to ChEMBL document CHEMBL6103618, “Discovery of Novel Oxazolo[4,3-f]purine Derivatives as Antitumor Agents through PPIA Interaction” (J Med Chem, 2025):

Columns and labels:
Type in all cases: functional, cell-based
HeLa = assay: Antiproliferative activity against human HeLa cells assessed as inhibition of cell viability incubated for 48 hrs by CCK8 assay
HCT-116 = assay: Antiproliferative activity against human HCT-116 cells assessed as inhibition of cell viability incubated for 48 hrs by CCK8 assay; details: HCT-116, 48 h
MCF7 = assay: Antiproliferative activity against human MCF7 cells assessed as inhibition of cell viability incubated for 48 hrs by CCK8 assay; details: MCF7, 48 h
SW480 = assay: Antiproliferative activity against human SW480 cells assessed as inhibition of cell viability incubated for 48 hrs by CCK8 assay; details: SW480, 48 h
CT26 = assay: Antiproliferative activity against mouse CT26 cells assessed as inhibition of cell viability incubated for 48 hrs by CCK8 assay; details: CT26, 48 h
PANC-1 = assay: Antiproliferative activity against human PANC-1 cells assessed as inhibition of cell viability incubated for 48 hrs by CCK8 assay; details: PANC-1, 48 h
HepG2 = assay: Antiproliferative activity against human HepG2 cells assessed as inhibition of cell viability incubated for 48 hrs by CCK8 assay; details: HepG2, 48 h

Row | SMILES | IC50 (HeLa) [µM] | IC50 (HCT-116) [µM] | other results
1 | CCOC(=O)/C=C/N1c2nc(Cl)nc(Cl)c2N2C(c3ccc(Br)cc3)OC(C(=O)OCC)(C(=O)OCC)C12 (racemic) | 13.7 | 9.32 | –
2 | CCOC(=O)/C=C/N1c2nc(Cl)nc(Cl)c2N2C(c3ccccc3C(F)(F)F)OC(C(=O)OCC)(C(=O)OCC)C12 (racemic) | 4.95 | 3.29 | –
3 | CCOC(=O)/C=C/N1c2nc(Cl)nc(Cl)c2N2C(c3ccccc3F)OC(C(=O)OCC)(C(=O)OCC)C12 (racemic) | 2.12 | 2.19 | –
4 | CCOC(=O)/C=C/N1c2nc(Cl)nc(Cl)c2N2C(c3ccccc3)OC(C(=O)OCc3ccccc3)(C(=O)OCc3ccccc3)C12 (racemic) | > 50 | > 50 | –
5 | C=C(C(=O)OC)N1c2nc(Cl)nc(Cl)c2N2[C@H](c3ccccc3F)OC(C(=O)OCC)(C(=O)OCC)[C@@H]12 | 0.47 | 0.65 | –
6 | CCOC(=O)/C=C/N1c2nc(Cl)nc(Cl)c2N2C(c3cccc(OC)c3)OC(C(=O)OCC)(C(=O)OCC)C12 (racemic) | 45.9 | 20.7 | –
7 | C=C(C(=O)OCC)N1c2nc(Cl)nc(Cl)c2N2C(c3ccccc3Br)OC(C(=O)OCC)(C(=O)OCC)C12 (racemic) | 4.78 | 6.16 | –
8 | CCOC(=O)/C=C/N1c2nc(Cl)nc(Cl)c2N2C(c3ccccc3Br)OC(C(=O)OCC)(C(=O)OCC)C12 (racemic) | 3.15 | 3.41 | –
9 | CCOC(=O)/C=C/N1c2nc(Cl)nc(Cl)c2N2C(c3ccccc3)OC(C(=O)OCC)C12 (racemic) | 6.57 | 11.9 | –
10 | CCOC(=O)/C=C/N1c2nc(Cl)nc(Cl)c2N2C(c3ccccc3)OC(CO)(CO)C12 (racemic) | 15.4 | 11.2 | –
11 | CCOC(=O)/C=C/N1c2nc(Cl)nc(Cl)c2N2C(c3cccc([N+](=O)[O-])c3)OC(C(=O)OCC)(C(=O)OCC)C12 (racemic) | 6.52 | 4.33 | –
12 | CCOC(=O)/C=C/N1c2nc(Cl)nc(Cl)c2N2C(c3ccc(C)cc3)OC(C(=O)OCC)(C(=O)OCC)C12 (racemic) | 43.7 | 20.7 | –
13 | CCOC(=O)/C=C/N1c2nc(Cl)nc(Cl)c2N2C(c3ccc([N+](=O)[O-])cc3)OC(C(=O)OCC)(C(=O)OCC)C12 (racemic) | 9.73 | 4.94 | –
14 | CCOC(=O)/C=C/N1c2ncnc(OC)c2N2C(c3ccccc3)OC(C(=O)OCC)(C(=O)OCC)C12 (racemic) | > 50 | > 50 | –
15 | CCOC(=O)/C=C/N1c2nc(Cl)nc(Cl)c2N2C(c3ccc(Cl)cc3)OC(C(=O)OCC)(C(=O)OCC)C12 (racemic) | > 50 | 7.14 | –
16 | CCOC(=O)/C=C/N1c2nc(Cl)nc(Cl)c2N2C(c3ccccc3I)OC(C(=O)OCC)(C(=O)OCC)C12 (racemic) | 10.2 | 3.73 | –
17 | C=C(C(=O)OCC)N1c2nc(Cl)nc(Cl)c2N2C(c3ccccc3F)OC(C(=O)OCC)(C(=O)OCC)C12 (racemic) | 0.55 | 0.82 | –
18 | CCOC(=O)/C=C/N1c2nc(Cl)nc(Cl)c2N2C(c3ccc(C(F)(F)F)cc3)OC(C(=O)OCC)(C(=O)OCC)C12 (racemic) | > 50 | 7.13 | –
19 | CCOC(=O)/C=C/N1c2nc(Cl)nc(Cl)c2N2C(c3cccc(Cl)c3)OC(C(=O)OCC)(C(=O)OCC)C12 (racemic) | 16.6 | 7.36 | –

Row | SMILES | IC50 (HeLa) [µM] | IC50 (HCT-116) [µM] | other results
20 | C=C(C(=O)OCC)N1c2nc(Cl)nc(Cl)c2N2C(c3ccccc3)OC(C(=O)OCC)(C(=O)OCC)C12 (racemic) | 1.74 | 2.5 | –
21 | CCOC(=O)/C=C/N1c2nc(Cl)nc(Cl)c2N2C(c3cccc(Br)c3)OC(C(=O)OCC)(C(=O)OCC)C12 (racemic) | 11.7 | 7.92 | –
22 | CCOC(=O)/C=C/N1c2nc(Cl)nc(OC)c2N2C(c3ccccc3)OC(C(=O)OCC)(C(=O)OCC)C12 (racemic) | > 50 | > 50 | –
23 | CCOC(=O)/C=C/N1c2ncncc2N2C(c3ccccc3)OC(C(=O)OCC)(C(=O)OCC)C12 (racemic) | > 50 | > 50 | –
24 | CCOC(=O)/C=C/N1c2nc(Cl)nc(N)c2N2C(c3ccccc3)OC(C(=O)OCC)(C(=O)OCC)C12 (racemic) | > 50 | > 50 | –
25 | CCCSc1ncnc2c1N1C(c3ccccc3)OC(C(=O)OCC)(C(=O)OCC)C1N2/C=C/C(=O)OCC (racemic) | > 50 | > 50 | –
26 | C=C(C(=O)OC)N1c2nc(Cl)nc(Cl)c2N2[C@@H](c3ccccc3F)OC(C(=O)OCC)(C(=O)OCC)[C@H]12 | 0.74 | 0.24 | –
27 | CCOC(=O)/C=C/N1c2nc(Cl)nc(Cl)c2N2C(c3ccccc3)OC(C(=O)OCC)(C(=O)OCC)C12 (racemic) | 12.3 | 13.8 | –
28 | CCOC(=O)/C=C/N1c2nc(Cl)nc(Cl)c2N2C(c3cccc(F)c3)OC(C(=O)OCC)(C(=O)OCC)C12 (racemic) | 6.72 | 5.1 | –
29 | CCOC(=O)C1(C(=O)OCC)OC(c2ccccc2)N2c3c(Cl)nc(Cl)nc3N(/C=C/C(=O)OC)C21 (racemic) | 11.2 | 14.2 | –
30 | CCOC(=O)C1(C(=O)OCC)OC(c2ccccc2)N2c3c(Cl)nc(Cl)nc3N(/C=C/C(=O)OC(C)(C)C)C21 (racemic) | > 50 | > 50 | –
31 | CCOC(=O)/C=C/N1c2nc(Cl)nc(Cl)c2N2C(c3ccc(Cl)c(Cl)c3)OC(C(=O)OCC)(C(=O)OCC)C12 (racemic) | 16.4 | 10.9 | –
32 | CCOC(=O)/C=C/N1c2nc(Cl)nc(Cl)c2N2C(c3ccc(I)cc3)OC(C(=O)OCC)(C(=O)OCC)C12 (racemic) | > 50 | 15.8 | –
33 | CCOC(=O)/C=C/N1c2nc(Cl)nc(Cl)c2N2C(c3ccc(F)cc3)OC(C(=O)OCC)(C(=O)OCC)C12 (racemic) | 7.16 | 6.97 | –
34 | CCOC(=O)/C=C/N1c2nc(F)nc(Cl)c2N2C(c3ccccc3)OC(C(=O)OCC)(C(=O)OCC)C12 (racemic) | 18.3 | 18.6 | –
35 | CCOC(=O)/C=C/N1c2nc(Cl)nc(Cl)c2N2C(c3ccc(C)c(C)c3)OC(C(=O)OCC)(C(=O)OCC)C12 (racemic) | 1.92 | 14.9 | –
36 | C=C(C(=O)OCC)N1c2nc(Cl)nc(Cl)c2N2C(c3ccccc3Cl)OC(C(=O)OCC)(C(=O)OCC)C12 (racemic) | 2.8 | 2.47 | –
37 | CCOC(=O)/C=C/N1c2nc(Cl)nc(Cl)c2N2C(c3ccccc3)OC(C(=O)OC)(C(=O)OC)C12 (racemic) | 12.6 | 6.93 | –

The next lines start with results.

Row | IC50 (HeLa) [µM] | IC50 (HCT-116) [µM] | SMILES | other results
38 | 26.2 | 10.4 | CCOC(=O)/C=C/N1c2nc(Cl)nc(Cl)c2N2C(c3cccc(C)c3)OC(C(=O)OCC)(C(=O)OCC)C12 (racemic) | –
39 | > 50 | > 50 | CCOC(=O)C1(C(=O)OCC)OC(c2ccccc2)N2c3c(Cl)nc(Cl)nc3N(/C=C/C(=O)OCc3ccccc3)C21 (racemic) | –
40 | 3.55 | 2.7 | CCOC(=O)/C=C/N1c2nc(Cl)nc(Cl)c2N2C(c3ccccc3Cl)OC(C(=O)OCC)(C(=O)OCC)C12 (racemic) | –
41 | > 50 | > 50 | CCOC(=O)/C=C/N1c2nc(Cl)nc(Cl)c2N2C(c3cccc4ccccc34)OC(C(=O)OCC)(C(=O)OCC)C12 (racemic) | –
42 | > 50 | > 50 | CCOC(=O)/C=C\N1c2nc(Cl)nc(Cl)c2N2C(c3ccccc3)OC(C(=O)OCC)(C(=O)OCC)C12 (configuration not stated) | –
43 | 2.17 | – | C/C=C/C[C@@H](C)[C@@H](O)[C@H]1C(=O)N[C@@H](CC)C(=O)N(C)CC(=O)N(C)[C@@H](CC(C)C)C(=O)N[C@@H](C(C)C)C(=O)N(C)[C@@H](CC(C)C)C(=O)N[C@@H](C)C(=O)N[C@H](C)C(=O)N(C)[C@@H](CC(C)C)C(=O)N(C)[C@@H](CC(C)C)C(=O)N(C)[C@@H](C(C)C)C(=O)N1C [CYCLOSPORINE] | IC50 (MCF7): 6.12 µM; IC50 (SW480): 5.16 µM; IC50 (CT26): 11.4 µM; IC50 (PANC-1): 13.3 µM; IC50 (HepG2): 12.3 µM
44 | > 50 | 21.7 | CCOC(=O)/C=C/N1c2nc(Cl)nc(Cl)c2N2C(c3ccc(-c4ccccn4)cc3)OC(C(=O)OCC)(C(=O)OCC)C12 (racemic) | –
45 | > 50 | 14 | CCOC(=O)/C=C/N1c2nc(Cl)nc(Cl)c2N2C(c3cc(OC)c(OC)c(OC)c3)OC(C(=O)OCC)(C(=O)OCC)C12 (racemic) | –
46 | 10 | 3.56 | CCOC(=O)/C=C/N1c2nc(Cl)nc(Cl)c2N2C(c3cccc(C(F)(F)F)c3)OC(C(=O)OCC)(C(=O)OCC)C12 (racemic) | –
47 | > 50 | > 50 | CCOC(=O)/C=C/N1c2nc(Cl)nc(Cl)c2N2C(c3ccccc3)OC(COS(=O)(=O)c3ccc(C)cc3)(COS(=O)(=O)c3ccc(C)cc3)C12 (racemic) | –
48 | > 50 | > 50 | CCOC(=O)/C=C/N1c2nc(Cl)nc(Cl)c2N2C(c3cccs3)OC(C(=O)OCC)(C(=O)OCC)C12 (racemic) | –
49 | 2.36 | 2.18 | C=C(C(=O)OC)N1c2nc(Cl)nc(Cl)c2N2C(c3ccccc3)OC(C(=O)OCC)(C(=O)OCC)C12 (racemic) | –
50 | 18.3 | 11.4 | CCOC(=O)/C=C/N1c2nc(Cl)nc(Cl)c2N2C(c3ccccc3)OC(CO)C12 (racemic) | –
51 | > 50 | 34 | CCOC(=O)/C=C/N1c2ncnc(Cl)c2N2C(c3ccccc3)OC(C(=O)OCC)(C(=O)OCC)C12 (racemic) | –
52 | > 50 | > 50 | CCCSc1nc(Cl)nc2c1N1C(c3ccccc3)OC(C(=O)OCC)(C(=O)OCC)C1N2/C=C/C(=O)OCC (racemic) | –
53 | > 50 | > 50 | CCOC(=O)/C=C/N1c2nc(Cl)nc(Cl)c2N2C(c3ccc4ccccc4c3)OC(C(=O)OCC)(C(=O)OCC)C12 (racemic) | –
54 | 12.4 | 9.84 | CCOC(=O)/C=C/N1c2nc(Cl)nc(Cl)c2N2C(c3ccccc3C)OC(C(=O)OCC)(C(=O)OCC)C12 (racemic) | –
